Measured values published in article PMC7970304, “The Effects of Apelin and Elabela Ligands on Apelin Receptor Distinct Signaling Profiles” (Frontiers in Pharmacology, 2021).

How the values were obtained:
Assay type in all cases: cell-based
[1] = tested on: APJ–GRK2 interaction; assay: BRET recruitment of GRK2 to APJ; settings: for log (τ/KA) / Δlog (τ/KA): APJ-GRK2; for log (τ/KA): Black–Leff operational model; for Δlog (τ/KA): relative to Apelin-13; for Bias factor / Log (Bias): APJ-GRK2 over Ca2+, reference Apelin-13; for Log (Bias): footnote a = statistically insignificant
Description: (§1) To detect the potencies of different peptide ligands for APJ in living cells, real-time kinetic bioluminescence resonance energy transfer (BRET) assays were carried out as follows. HEK293 cells were grown to 80–90% confluence in 24-well plates and transiently transfected with various Rluc-, EYFP-, or Venus-tagged constructs ([Chen et al., 2014]; [Liu et al., 2016]). Approximately 36 h after transfection, the long-acting luciferase substrate EnduRen (E6481, Promega, Beijing Biotech Co., Ltd.) was added to each well at a final concentration of 60 μM and cells were incubated for 2 h at 37°C in a 5% CO2 incubator. BRET experiments were carried out using a Mithras LB941 plate reader (Berthold Technologies, Bad Wildbad, Germany) with three filters: a Rluc filter (400–475 nm), a Venus filter (515–575 nm) and an EGFP filter (500–550 nm) ([Liu et al., 2016]; [Ji et al., 2017]). The BRET ratio was calculated as the ratio of the emission at 535 ± 30 nm to that at 485 ± 20 nm. The results are expressed as the mBRET (mBRET = 1,000 × BRET ratio) ([Pfleger et al., 2006a]; [Pfleger et al., 2006b]). We use high glucose as a negative control group.
(§2) HEK293 cells were transiently co-transfected with the designated Rluc and GFP2 or Venus or EYFP-labeled constructs. Twenty-four hours after transfection, the cells were harvested in phenol red free medium containing 5% FCS in HEPES buffer and seeded in 96 well white microplate coated with poly-D-lysine. After 24 h, cells were washed twice in PBS and re-suspended in PBS containing 0.5 mM MgCl2 and 0.1% glucose. Coelenterazine h substrate was added at a final concentration of 5 μM in the total volume of 50 μL/well. Kinetic-response and dose-response curve of the recruitment of GRKs or β-arrestin 1 and β-arrestin 2 or AP2 to the APJ by six peptides measured by BRET. […] The BRET signals between receptor and GRKs/β-arrestin1 and 2/AP2 were recorded at 10 min (GRK2/5) or 15 min (β-arrestin1 and) or 30 min (AP2) after agonist stimulation. We use high glucose as a control group. BRET assays were performed as described previously ([Xue et al., 2018]). […] This signal is defined as the ligand induced BRET ratio.
(§3) The concentration-response data for the ligands in various assays were analyzed to determine the biases of the ligands for G protein dependent signaling or β-arrestin dependent signaling, according to a previously published method ([Kenakin et al., 2012]; [Hager et al., 2016]; [Hothersall et al., 2017]). Briefly, the concentration-response data for each ligand were fitted to the Black–Leff operation model to obtain the values of τ and K A, using the following equation: Response=[A]^nτ^nEm/[A]^nτ^n+([A]KA)^n where [A] is the concentration of the agonist, E m is the maximal response of the system, n is the transducer slope, and K A and τ describe the affinity and efficacy of the agonist, respectively. In the data fitting, the reparametrized form of the equation proposed by [Kenakin et al. (2012)] was used: Response=Em/1+exp{nln[1+exp(β1)/[A]]−nβ2} where β 1 and β 2 are the natural logarithm of K A and τ, respectively, and E m was set to 1. Thus, for each concentration-response curve, a non-linear regression was performed to fit the above equation to give β 1 and β 2 (as well as n). Log (τ/K A) values (“transduction coefficients”) for each ligand vs. each pathway were obtained. […] The ΔΔlog (τ/K A), or Log (Bias), which is the logarithm of the bias factor for a given pathway over a reference pathway (here, intracellular calcium release), was calculated for each ligand as Δlog (τ/K A)–Δlog (τ/K A)Calcium. The 95% confidence interval (CI) was expressed as the mean ± standard error; Log (Bias) values, whose 95% CI crosses 0, were considered statistically insignificant.
(§4) The data were analyzed using GraphPad Prism v5.0. All the data are presented as the mean ± SEM.

[2] = tested on: APJ–β-arrestin 2 interaction; assay: BRET recruitment of β-arrestin 2 to APJ; settings: for log (τ/KA): Black–Leff operational model; for Bias factor / Log (Bias): APJ-β-arrestin 2 over Ca2+, reference Apelin-13; for Log (Bias): footnote a = statistically insignificant
Description: as §1, §2, §3, §4

[3] = tested on: APJ (Apelin receptor); ERK1/2 phosphorylation; assay: ERK1/2 activation assay, Western blot; settings: for Bias factor / Log (Bias): WB-ERK over Ca2+, reference Apelin-13; for Log (Bias): footnote a = statistically insignificant; for log (τ/KA) / Δlog (τ/KA): WB-ERK; for log (τ/KA): Black–Leff operational model; for Δlog (τ/KA): relative to Apelin-13
Description: HEK293 cells expressing APJ were spilt into 6-well plates at a density of 10^5 cells per well and cultured until reaching approximately 90% confluence. The cells were treated with different concentrations of peptide ligands (0.01–1,000 nM). The cells were washed twice with Phosphate-buffered saline (PBS) and lyzed in RIPA lysis buffer (50 mm Tris–HCl, pH 7.41, 50 mM NaCl, 1 mM EDTA, 10 mM MgCl2, 1 mM DTT, 1 mM PMSF, 1 μg/ml […], […]), 1.4 μg/ml […] and 0.5% (v/v) NP-40). After centrifugation at 14,000 rpm at 4°C for 30 min, the supernatant was collected and separated by 10% SDS-PAGE. Gel transfer takes about 60 min at 250 mA. The nitrocellulose membrane was sealed with 5% skim milk dissolved in 0.1% Triton X-100 of PBS. The primary ERK1/2 antibody was diluted with 5% bovine serum albumin (BSA) at 1:2,000, and the second antibody was diluted with 1:5,000. The ECL reagent was applied to the membrane. The films were scanned by Vanoscan Lide 700F scanner and analyzed by scion image software. The dose-response curve was fitted using the data detected at 5 min after stimulation.
as §3
The data were analyzed using GraphPad Prism v5.0. All the data are presented as the mean ± SEM. Differences between groups were compared by one-way analysis of variants (ANOVA), followed by post-hoc tests (Tukey’s test), When p < 0.05, the difference was considered significant. All experiments were repeated at least four times. The dose-response curves were generated using non-linear fitting model log (agonist) vs. response (three-parameters), with Hill Slope held to 1, i.e., Y = Bottom + (Top-Bottom)/(1 + 10^(LogEC50-X)).
FIGURE 4 Changes of ERK1/2 phosphorylation in HEK293 cells with stable expression of APJ: (A–F) after 5-min stimulation by the six agonists in different concentrations (0.01–1,000 nM) (G and H) ERK was measured after 5 or 15 min stimulation with six peptides at a concentration of 100 nM. Levels of p-ERK, total ERK were determined by Western blot. The data represent means ± SEM of four independent experiments.

Row | Structure (SMILES) | log (τ/KA) [1] | Δlog (τ/KA) [1] | Bias factor [1] | Log (Bias) [1] | log (τ/KA) ([2]; APJ-β-arrestin 2) | Δlog (τ/KA) ([2]; APJ-β-arrestin 2, relative to Apelin-13) | Bias factor [2] | Log (Bias) [2] | ERK1/2 phosphorylation (in words) ([3]; 100 nM, 15 min) | bias over calcium release ([3]; ERK pathway) [fold] | Bias factor [3] | Log (Bias) [3] | log (τ/KA) [3] | Δlog (τ/KA) [3] | Log (Bias) ([1]; listed as ELA-32) | bias over calcium release ([1]; APJ–GRK2) | Log (Bias) ([2]; listed as ELA-32) | bias over calcium release ([2]; APJ–β-arrestin 2)
1 | CSCC[C@H](NC(=O)[C@@H]1CSSC[C@H](NC(=O)[C@H](CC(N)=O)NC(=O)[C@H](Cc2c[nH]cn2)NC(=O)[C@H](CCCCN)NC(=O)[C@H](CCCNC(=N)N)NC(=O)[C@@H](N)CC(C)C)C(=O)N[C@@H](CC(C)C)C(=O)N[C@@H](CCC(N)=O)C(=O)N[C@@H](CCCNC(=N)N)C(=O)N[C@@H](CCCNC(=N)N)C(=O)N1)C(=O)N1CCC[C@H]1C(=O)N[C@@H](CC(C)C)C(=O)N[C@@H](Cc1c[nH]cn1)C(=O)N[C@@H](CO)C(=O)N[C@@H](CCCNC(=N)N)C(=O)N[C@H](C(=O)N1CCC[C@H]1C(=O)N[C@@H](Cc1ccccc1)C(=O)N1CCC[C@H]1C(=O)O)C(C)C [Elabela-21] | −1.5 ± 0.2 | 0.6 ± 0.3 | 169.0 | 2.2 ± 0.4 | −2.1 ± 0.1 | 0.3 ± 0.1 | 73.6 | 1.9 ± 0.2 | significantly higher than the activation of ERK1/2 by the other ligands | 0.1 | 0.1 | −1.0 ± 0.3 | −2.5 ± 0.2 | −2.6 ± 0.2 | – | – | – | –
2 | CSCC[C@H](NC(=O)[C@@H](NC(=O)[C@H](CC(C)C)NC(=O)[C@H](CC(N)=O)NC(=O)[C@@H](NC(=O)[C@@H]1CCCN1C(=O)[C@H](CCCNC(=N)N)NC(=O)[C@@H](N)CCC(N)=O)C(C)C)[C@@H](C)O)C(=O)N[C@@H](CCCNC(=N)N)C(=O)N[C@@H](CCCNC(=N)N)C(=O)N[C@@H](CCCCN)C(=O)N[C@@H](CC(C)C)C(=O)N[C@@H](CCCNC(=N)N)C(=O)N[C@@H](CCCCN)C(=O)N[C@@H](Cc1c[nH]cn1)C(=O)N[C@@H](CC(N)=O)C(=O)N[C@H]1CSSC[C@@H](C(=O)N[C@@H](CCSC)C(=O)N2CCC[C@H]2C(=O)N[C@@H](CC(C)C)C(=O)N[C@@H](Cc2c[nH]cn2)C(=O)N[C@@H](CO)C(=O)N[C@@H](CCCNC(=N)N)C(=O)N[C@H](C(=O)N2CCC[C@H]2C(=O)N[C@@H](Cc2ccccc2)C(=O)N2CCC[C@H]2C(=O)O)C(C)C)NC(=O)[C@H](CCCNC(=N)N)NC(=O)[C@H](CCCNC(=N)N)NC(=O)[C@H](CCC(N)=O)NC(=O)[C@H](CC(C)C)NC1=O [Elabela-32] | −0.8 ± 0.2 | 1.3 ± 0.3 | 1,604.0 | 3.2 | −0.4 ± 0.1 | – | 6,138.2 | 3.8 | – | – | 3.0 | 0.5 ± 0.3 | −1.3 ± 0.2 | −1.4 ± 0.2 | 3.2 ± 0.4 | > 1,500 fold | 3.8 ± 0.2 | > 6,000 fold
